Measured values reported in publication PMC8320704 (Journal of medicinal chemistry, 2015).
Read-outs that look alike come from different tables or passages of the source.

Assays:
HIV-1 IN (3′-P) = HIV-1 IN (3′-P) (Human immunodeficiency virus type 1 group M subtype B, UniProt P04585); experiment: HIV-1 IN gel-based assay, 3′-processing; format: biochemical
HIV-1 RT RNase H = HIV-1 RT RNase H (Human immunodeficiency virus type 1 group M subtype B, UniProt P04585); experiment: HIV-1 RT RNase H inhibition; format: biochemical
HIV-1 IN (ST) = HIV-1 IN (ST) (Human immunodeficiency virus type 1 group M subtype B, UniProt P04585); experiment: HIV-1 IN gel-based assay, strand transfer; format: biochemical

CCOC(=O)/C(O)=C/C(=O)c1cn(Cc2ccc(F)c(Cl)c2)c2c(Cl)cccc2c1=O [10u, 8-Chloro-4-[1-(3-chloro-4-fluorophenyl)methyl-4(1H)-quinolinon-3-yl]-2-hydroxy-4-oxo-2-butenoic Acid Ethyl Ester]
IC50 (HIV-1 IN (3′-P)): > 333 µM

CCOC(=O)/C(O)=C/C(=O)c1cn(Cc2cccc(F)c2)c2ccccc2c1=O [10d, 4-[1-(3-Fluorophenyl)methyl-4(1H)-quinolinon-3-yl]-2-hydroxy-4-oxo-2-butenoic Acid Ethyl Ester]
IC50 (HIV-1 IN (3′-P)): > 12.3 µM | SI = CC50/EC50 (HIV-1(IIIB); Table 1): >29.4

O=C(O)/C(O)=C/C(=O)c1cn(Cc2ccc(F)c(F)c2)c2ccccc2c1=O [11m, 4-[1-(3,4-Difluorophenyl)methyl-4(1H)-quinolinon-3-yl]-2-hydroxy-4-oxo-2-butenoic Acid]
IC50 (HIV-1 RT RNase H; RNase H IC50, Table 1): > 50 µM | SI = CC50/EC50 (HIV-1(IIIB); Table 1): >3.1

O=C(O)/C(O)=C/C(=O)c1cn(Cc2ccc(O)cc2)c2ccccc2c1=O [11g, 4-[1-(4-Hydroxyphenyl)methyl-4(1H)-quinolinon-3-yl]-2-hydroxy-4-oxo-2-butenoic Acid]
IC50 (HIV-1 IN (3′-P)): > 37 µM | IC50 (HIV-1 RT RNase H; RNase H IC50, text): ~10 µM

O=C(O)/C(O)=C/C(=O)c1cn(Cc2cccc(Cl)c2F)c2ccccc2c1=O [11s, 4-[1-(3-Chloro-2-fluorophenyl)methyl-4(1H)-quinolinon-3-yl]-2-hydroxy-4-oxo-2-butenoic Acid]
SI = CC50/EC50 (HIV-1(IIIB); Table 1): >2.1

CCOC(=O)/C(O)=C/C(=O)c1cn(Cc2c(F)cccc2F)c2ccccc2c1=O [10l, 4-[1-(2,6-Difluorophenyl)methyl-4(1H)-quinolinon-3-yl]-2-hydroxy-4-oxo-2-butenoic Acid Ethyl Ester]
IC50 (HIV-1 IN (3′-P)): > 12.3 µM | selectivity index (SI) (HIV-1(IIIB)): > 250 | SI = CC50/EC50 (HIV-1(IIIB); Table 1): >250

O=C(O)/C(O)=C/C(=O)c1cn(Cc2cc(F)ccc2F)c2ccccc2c1=O [11k, 4-[1-(2,5-Difluorophenyl)methyl-4(1H)-quinolinon-3-yl]-2-hydroxy-4-oxo-2-butenoic Acid]
IC50 (HIV-1 RT RNase H; RNase H IC50, Table 1): > 50 µM

CCOC(=O)/C(O)=C/C(=O)c1cn(Cc2ccc3ccccc3n2)c2ccccc2c1=O [10aa, 2-Hydroxy-4-oxo-4-(4-oxo-1-(quinolin-2-ylmethyl)-1,4-dihydroquinolin-3-yl)but-2-enoic Acid Ethyl Ester]
IC50 (HIV-1 IN (3′-P)): > 1000 µM

CCOC(=O)/C(O)=C/C(=O)c1cn(Cc2ccc(F)cc2F)c2ccccc2c1=O [10j, 4-[1-(2,4-Difluorophenyl)methyl-4(1H)-quinolinon-3-yl]-2-hydroxy-4-oxo-2-butenoic Acid Ethyl Ester]
selectivity index (SI) (HIV-1(IIIB)): > 86.2 | SI = CC50/EC50 (HIV-1(IIIB); Table 1): >86.2

CCOC(=O)/C(O)=C/C(=O)c1cn(Cc2ccccc2F)c2cc(Cl)ccc2c1=O [10w, 4-[7-Chloro-1-(2-fluorophenyl)methyl-4(1H)-quinolinon-3-yl]-2-hydroxy-4-oxo-2-butenoic Acid Ethyl Ester]
SI = CC50/EC50 (HIV-1(IIIB); Table 1): >4.5

O=C(O)/C(O)=C/C(=O)c1cn(Cc2ccccc2F)c2ccccc2c1=O [11b, 4-[1-(2-Fluorophenyl)methyl-4(1H)-quinolinon-3-yl]-2-hydroxy-4-oxo-2-butenoic Acid]
IC50 (HIV-1 RT RNase H; RNase H IC50, Table 1): > 50 µM | SI = CC50/EC50 (HIV-1(IIIB); Table 1): >19.2

CCOC(=O)/C(O)=C/C(=O)c1cn(Cc2ccccc2)c2ccccc2c1=O [10a, 4-[1-Phenylmethyl-4(1H)-quinolinon-3-yl]-2-hydroxy-4-oxo-2-butenoic Acid Ethyl Ester]
IC50 (HIV-1 IN (3′-P)): > 1000 µM | SI = CC50/EC50 (HIV-1(IIIB); Table 1): >50

CCOC(=O)/C(O)=C/C(=O)c1cn(Cc2ccc(F)c(Cl)c2)c2ccccc2c1=O [10t, 4-[1-(3-Chloro-4-fluorophenyl)methyl-4(1H)-quinolinon-3-yl]-2-hydroxy-4-oxo-2-butenoic Acid Ethyl Ester]
SI = CC50/EC50 (HIV-1(IIIB); Table 1): >2.9

CCOC(=O)/C(O)=C/C(=O)c1cn(CCCCc2ccccc2)c2ccccc2c1=O [10x, 2-Hydroxy-4-oxo-4-(4-oxo-1-(4-phenylbutyl)-1,4-dihydroquinolin-3-yl)but-2-enoic Acid Ethyl Ester]
IC50 (HIV-1 IN (3′-P)): > 333 µM

CCOC(=O)/C(O)=C/C(=O)c1cn(Cc2ccccc2OC)c2ccccc2c1=O [10c, 4-[1-(2-Methoxyphenyl)methyl-4(1H)-quinolinon-3-yl]-2-hydroxy-4-oxo-2-butenoic Acid Ethyl Ester]
IC50 (HIV-1 IN (3′-P)): > 333 µM | SI = CC50/EC50 (HIV-1(IIIB); Table 1): >19.2

O=C(O)/C(O)=C/C(=O)c1cn(Cc2ccc(Cl)cc2)c2ccccc2c1=O [11f, 4-[1-(4-Chlorophenyl)methyl-4(1H)-quinolinon-3-yl]-2-hydroxy-4-oxo-2-butenoic Acid]
IC50 (HIV-1 RT RNase H; RNase H IC50, Table 1): > 50 µM | selectivity index (SI) (HIV-1(IIIB)): > 57.5 | SI = CC50/EC50 (HIV-1(IIIB); Table 1): >57.5

CCOC(=O)/C(O)=C/C(=O)c1cn(Cc2ccc(F)c(F)c2)c2ccccc2c1=O [10m, 4-[1-(3,4-Difluorophenyl)methyl-4(1H)-quinolinon-3-yl]-2-hydroxy-4-oxo-2-butenoic Acid Ethyl Ester]
SI = CC50/EC50 (HIV-1(IIIB); Table 1): >5.1

O=C(O)/C(O)=C/C(=O)c1cn(Cc2ccccc2F)c2cc(Cl)ccc2c1=O [11w, 4-[7-Chloro-1-(2-fluorophenyl)methyl-4(1H)-quinolinon-3-yl]-2-hydroxy-4-oxo-2-butenoic Acid]
SI = CC50/EC50 (HIV-1(IIIB); Table 1): >2.9

O=C(O)/C(O)=C/C(=O)c1cn(Cc2ccc(F)cc2F)c2ccccc2c1=O [11j, 4-[1-(2,4-Difluorophenyl)methyl-4(1H)-quinolinon-3-yl]-2-hydroxy-4-oxo-2-butenoic Acid]
SI = CC50/EC50 (HIV-1(IIIB); Table 1): >3.6

O=C(O)/C(O)=C/C(=O)c1cn(Cc2ccc3ccccc3c2)c2ccccc2c1=O [11y, 2-Hydroxy-4-(1-(naphthalen-2-ylmethyl)-4-oxo-1,4-dihydroquinolin-3-yl)-4-oxobut-2-enoic Acid]
IC50 (HIV-1 IN (ST)): < 0.45 µM | SI = CC50/EC50 (HIV-1(IIIB); Table 2): >10.4

O=C(O)/C(O)=C/C(=O)c1cn(Cc2cc(F)cc(F)c2)c2ccccc2c1=O [11n, 4-[1-(3,5-Difluorophenyl)methyl-4(1H)-quinolinon-3-yl]-2-hydroxy-4-oxo-2-butenoic Acid]
IC50 (HIV-1 RT RNase H; RNase H IC50, Table 1): > 50 µM

CCOC(=O)/C(O)=C/C(=O)c1cn(Cc2cccc(OC)c2)c2ccccc2c1=O [10e, 4-[1-(3-Methoxyphenyl)methyl-4(1H)-quinolinon-3-yl]-2-hydroxy-4-oxo-2-butenoic Acid Ethyl Ester]
IC50 (HIV-1 IN (3′-P)): > 333 µM

CCOC(=O)/C(O)=C/C(=O)c1cn(Cc2cc(F)cc(F)c2)c2ccccc2c1=O [10n, 4-[1-(3,5-Difluorophenyl)methyl-4(1H)-quinolinon-3-yl]-2-hydroxy-4-oxo-2-butenoic Acid Ethyl Ester]
SI = CC50/EC50 (HIV-1(IIIB); Table 1): >1.5

COc1ccc(Cn2cc(C(=O)/C=C(\O)C(=O)O)c(=O)c3ccccc32)cc1 [11h, 4-[1-(4-Methoxyphenyl)methyl-4(1H)-quinolinon-3-yl]-2-hydroxy-4-oxo-2-butenoic Acid]
IC50 (HIV-1 RT RNase H; RNase H IC50, Table 1): > 50 µM

O=C(O)/C(O)=C/C(=O)c1cn(Cc2ccccc2F)c2c(Cl)cccc2c1=O [11v, 8-Chloro-4-[1-(2-fluorophenyl)methyl-4(1H)-quinolinon-3-yl]-2-hydroxy-4-oxo-2-butenoic Acid]
IC50 (HIV-1 RT RNase H; RNase H IC50, Table 1): > 50 µM

CCOC(=O)/C(O)=C/C(=O)c1cn(Cc2c(Cl)cccc2Cl)c2ccccc2c1=O [10p, 4-[1-(2,6-Dichlorophenyl)methyl-4(1H)-quinolinon-3-yl]-2-hydroxy-4-oxo-2-butenoic Acid Ethyl Ester]
IC50 (HIV-1 RT RNase H; RNase H IC50, Table 1): > 50 µM | SI = CC50/EC50 (HIV-1(IIIB); Table 1): >1.7

O=C(O)/C(O)=C/C(=O)c1cn(Cc2ccncc2)c2ccccc2c1=O [11z, 2-Hydroxy-4-oxo-4-(4-oxo-1-(pyridin-4-ylmethyl)-1,4-dihydroquinolin-3-yl)but-2-enoic Acid]
IC50 (HIV-1 IN (3′-P)): > 1000 µM

CCOC(=O)/C(O)=C/C(=O)c1cn(Cc2ccc3ccccc3c2)c2ccccc2c1=O [10y, 2-Hydroxy-4-(1-(naphthalen-2-ylmethyl)-4-oxo-1,4-dihydroquinolin-3-yl)-4-oxobut-2-enoic Acid Ethyl Ester]
IC50 (HIV-1 IN (3′-P)): > 333 µM

CCOC(=O)/C(O)=C/C(=O)c1cn(Cc2ccccc2F)c2ccccc2c1=O [10b, 4-[1-(2-Fluorophenyl)methyl-4(1H)-quinolinon-3-yl]-2-hydroxy-4-oxo-2-butenoic Acid Ethyl Ester]
SI = CC50/EC50 (HIV-1(IIIB); Table 1): >33.4

CCOC(=O)/C(O)=C/C(=O)c1cn(Cc2ccncc2)c2ccccc2c1=O [10z, 2-Hydroxy-4-oxo-4-(4-oxo-1-(pyridin-4-ylmethyl)-1,4-dihydroquinolin-3-yl)but-2-enoic Acid Ethyl Ester]
IC50 (HIV-1 IN (3′-P)): > 333 µM

O=C(O)/C(O)=C/C(=O)c1cn(Cc2c(F)cccc2F)c2ccccc2c1=O [11l, 4-[1-(2,6-Difluorophenyl)methyl-4(1H)-quinolinon-3-yl]-2-hydroxy-4-oxo-2-butenoic Acid]
IC50 (HIV-1 RT RNase H; RNase H IC50, text): ~10 µM | SI = CC50/EC50 (HIV-1(IIIB); Table 1): >6.2

CCOC(=O)/C(O)=C/C(=O)c1cn(Cc2cccc(Cl)c2F)c2ccccc2c1=O [10s, 4-[1-(3-Chloro-2-fluorophenyl)methyl-4(1H)-quinolinon-3-yl]-2-hydroxy-4-oxo-2-butenoic Acid Ethyl Ester]
SI = CC50/EC50 (HIV-1(IIIB); Table 1): >5

COc1ccccc1Cn1cc(C(=O)/C=C(\O)C(=O)O)c(=O)c2ccccc21 [11c, 4-[1-(2-Methoxyphenyl)methyl-4(1H)-quinolinon-3-yl]-2-hydroxy-4-oxo-2-butenoic Acid]
IC50 (HIV-1 IN (3′-P)): > 4.1 µM | SI = CC50/EC50 (HIV-1(IIIB); Table 1): >5.4

CCOC(=O)/C(O)=C/C(=O)c1cn(Cc2ccc(O)cc2)c2ccccc2c1=O [10g, 4-[1-(4-Hydroxyphenyl)methyl-4(1H)-quinolinon-3-yl]-2-hydroxy-4-oxo-2-butenoic Acid Ethyl Ester]
IC50 (HIV-1 IN (3′-P)): > 333 µM | SI = CC50/EC50 (HIV-1(IIIB); Table 1): >1.6

O=C(O)/C(O)=C/C(=O)c1cn(Cc2cccc(F)c2)c2ccccc2c1=O [11d, 4-[1-(3-Fluorophenyl)methyl-4(1H)-quinolinon-3-yl]-2-hydroxy-4-oxo-2-butenoic Acid]
SI = CC50/EC50 (HIV-1(IIIB); Table 1): >1.8

COc1cccc(Cn2cc(C(=O)/C=C(\O)C(=O)O)c(=O)c3ccccc32)c1 [11e, 4-[1-(3-Methoxyphenyl)methyl-4(1H)-quinolinon-3-yl]-2-hydroxy-4-oxo-2-butenoic Acid]
IC50 (HIV-1 IN (3′-P)): > 4.1 µM
